Experimental data taken from ChEMBL document CHEMBL4602624, “Discovery of a potent and selective adenylyl cyclase type 8 agonist by docking-based virtual screening” (Bioorg Med Chem Lett, 2020).
The source made the active and inactive calls. No cut-off for these calls is given here.

Columns and labels:
Type in all cases: cell-based
[1] = target: Adenylate cyclase type 5 (Homo sapiens) (UniProt O95622); assay: Agonist activity at recombinant human AC5 expressed in human HEK293 cells assessed as increase in cAMP level at 50 uM by LANCE Ultra cAMP Detection kit method
[2] = target: Adenylate cyclase type 2 (Homo sapiens) (UniProt Q08462); assay: Agonist activity at recombinant human AC2 expressed in human HEK293 cells assessed as increase in cAMP level at 50 uM by LANCE Ultra cAMP Detection kit method
[3] = target: Adenylate cyclase type 1 (Homo sapiens) (UniProt Q08828); assay: Agonist activity at recombinant human AC1 expressed in human HEK293 cells assessed as increase in cAMP level at 50 uM by LANCE Ultra cAMP Detection kit
[4] = target: T1, Adenylate cyclase type 8 (Homo sapiens, UniProt P40145); assay: Agonist activity at recombinant human AC8 expressed in human HEK293 cells assessed as fold increase in cAMP level by LANCE Ultra cAMP Detection kit method
[5] = target: T1, Adenylate cyclase type 8; assay: Agonist activity at recombinant human AC8 expressed in human HEK293 cells assessed as fold increase in cAMP level at 50 uM by LANCE Ultra cAMP Detection kit method relative to control

T1 sequence (P40145 whole entry): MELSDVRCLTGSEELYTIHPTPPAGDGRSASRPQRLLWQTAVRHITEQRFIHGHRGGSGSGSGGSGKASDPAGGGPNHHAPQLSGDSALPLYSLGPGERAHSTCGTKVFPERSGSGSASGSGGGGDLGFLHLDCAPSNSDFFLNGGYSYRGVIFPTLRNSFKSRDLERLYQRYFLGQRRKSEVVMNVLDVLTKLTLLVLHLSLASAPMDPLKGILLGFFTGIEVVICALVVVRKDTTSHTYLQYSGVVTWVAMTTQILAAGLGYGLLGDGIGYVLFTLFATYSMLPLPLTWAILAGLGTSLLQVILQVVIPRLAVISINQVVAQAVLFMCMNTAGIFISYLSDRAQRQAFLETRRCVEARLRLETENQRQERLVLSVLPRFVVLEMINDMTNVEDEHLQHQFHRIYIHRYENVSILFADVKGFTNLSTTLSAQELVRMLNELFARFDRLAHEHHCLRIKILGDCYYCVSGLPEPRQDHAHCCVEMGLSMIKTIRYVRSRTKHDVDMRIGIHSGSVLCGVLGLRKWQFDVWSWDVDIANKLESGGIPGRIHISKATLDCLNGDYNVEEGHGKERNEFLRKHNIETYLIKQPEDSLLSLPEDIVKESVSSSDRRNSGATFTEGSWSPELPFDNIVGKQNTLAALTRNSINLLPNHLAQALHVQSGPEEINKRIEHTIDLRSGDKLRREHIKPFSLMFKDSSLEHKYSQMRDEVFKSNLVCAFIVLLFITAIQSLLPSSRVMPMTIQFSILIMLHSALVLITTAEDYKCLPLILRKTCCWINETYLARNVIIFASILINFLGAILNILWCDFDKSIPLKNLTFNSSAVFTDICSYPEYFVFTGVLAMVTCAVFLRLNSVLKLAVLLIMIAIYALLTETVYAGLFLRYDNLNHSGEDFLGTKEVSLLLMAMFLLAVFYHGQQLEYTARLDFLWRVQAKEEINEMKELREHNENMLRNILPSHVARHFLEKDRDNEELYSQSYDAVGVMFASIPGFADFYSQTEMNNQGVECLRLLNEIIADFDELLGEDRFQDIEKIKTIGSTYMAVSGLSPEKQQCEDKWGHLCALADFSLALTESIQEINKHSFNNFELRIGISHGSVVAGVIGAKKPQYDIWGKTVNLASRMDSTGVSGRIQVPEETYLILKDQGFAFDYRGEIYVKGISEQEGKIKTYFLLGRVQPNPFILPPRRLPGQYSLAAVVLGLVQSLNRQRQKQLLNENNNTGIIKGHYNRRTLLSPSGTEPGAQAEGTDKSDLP
Sequence of Adenylate cyclase type 5 (Homo sapiens) (O95622 whole entry, looked up): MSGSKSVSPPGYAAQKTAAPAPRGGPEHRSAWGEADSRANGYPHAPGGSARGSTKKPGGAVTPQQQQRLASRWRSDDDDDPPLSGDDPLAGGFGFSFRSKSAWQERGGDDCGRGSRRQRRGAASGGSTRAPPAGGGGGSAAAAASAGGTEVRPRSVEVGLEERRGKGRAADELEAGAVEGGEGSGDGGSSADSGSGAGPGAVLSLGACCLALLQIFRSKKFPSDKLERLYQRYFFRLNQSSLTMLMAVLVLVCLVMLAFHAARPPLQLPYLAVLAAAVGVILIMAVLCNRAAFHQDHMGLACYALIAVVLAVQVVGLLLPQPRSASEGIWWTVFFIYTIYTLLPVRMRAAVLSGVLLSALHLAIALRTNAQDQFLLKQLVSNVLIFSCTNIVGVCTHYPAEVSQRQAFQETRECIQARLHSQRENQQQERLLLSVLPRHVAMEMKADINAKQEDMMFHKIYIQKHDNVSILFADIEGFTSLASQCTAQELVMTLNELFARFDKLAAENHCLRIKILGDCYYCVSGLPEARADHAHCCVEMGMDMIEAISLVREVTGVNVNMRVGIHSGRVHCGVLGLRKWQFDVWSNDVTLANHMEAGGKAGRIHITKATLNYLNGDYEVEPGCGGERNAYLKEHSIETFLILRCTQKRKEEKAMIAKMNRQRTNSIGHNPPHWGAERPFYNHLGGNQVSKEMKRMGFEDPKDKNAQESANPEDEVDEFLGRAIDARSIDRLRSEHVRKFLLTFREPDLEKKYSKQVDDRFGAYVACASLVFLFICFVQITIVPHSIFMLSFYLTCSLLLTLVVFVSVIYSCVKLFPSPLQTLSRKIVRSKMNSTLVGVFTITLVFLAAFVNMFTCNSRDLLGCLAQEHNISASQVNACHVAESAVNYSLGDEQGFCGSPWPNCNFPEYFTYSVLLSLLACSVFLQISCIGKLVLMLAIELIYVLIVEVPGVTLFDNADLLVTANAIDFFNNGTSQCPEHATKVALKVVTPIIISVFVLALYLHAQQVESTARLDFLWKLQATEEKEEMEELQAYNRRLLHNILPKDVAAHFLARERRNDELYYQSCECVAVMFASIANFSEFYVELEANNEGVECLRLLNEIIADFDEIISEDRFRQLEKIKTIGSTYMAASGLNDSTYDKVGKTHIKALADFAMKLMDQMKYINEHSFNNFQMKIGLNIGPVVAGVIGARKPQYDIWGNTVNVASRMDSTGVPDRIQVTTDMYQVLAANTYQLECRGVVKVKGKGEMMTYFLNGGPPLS
Sequence of Adenylate cyclase type 2 (Homo sapiens) (Q08462 whole entry): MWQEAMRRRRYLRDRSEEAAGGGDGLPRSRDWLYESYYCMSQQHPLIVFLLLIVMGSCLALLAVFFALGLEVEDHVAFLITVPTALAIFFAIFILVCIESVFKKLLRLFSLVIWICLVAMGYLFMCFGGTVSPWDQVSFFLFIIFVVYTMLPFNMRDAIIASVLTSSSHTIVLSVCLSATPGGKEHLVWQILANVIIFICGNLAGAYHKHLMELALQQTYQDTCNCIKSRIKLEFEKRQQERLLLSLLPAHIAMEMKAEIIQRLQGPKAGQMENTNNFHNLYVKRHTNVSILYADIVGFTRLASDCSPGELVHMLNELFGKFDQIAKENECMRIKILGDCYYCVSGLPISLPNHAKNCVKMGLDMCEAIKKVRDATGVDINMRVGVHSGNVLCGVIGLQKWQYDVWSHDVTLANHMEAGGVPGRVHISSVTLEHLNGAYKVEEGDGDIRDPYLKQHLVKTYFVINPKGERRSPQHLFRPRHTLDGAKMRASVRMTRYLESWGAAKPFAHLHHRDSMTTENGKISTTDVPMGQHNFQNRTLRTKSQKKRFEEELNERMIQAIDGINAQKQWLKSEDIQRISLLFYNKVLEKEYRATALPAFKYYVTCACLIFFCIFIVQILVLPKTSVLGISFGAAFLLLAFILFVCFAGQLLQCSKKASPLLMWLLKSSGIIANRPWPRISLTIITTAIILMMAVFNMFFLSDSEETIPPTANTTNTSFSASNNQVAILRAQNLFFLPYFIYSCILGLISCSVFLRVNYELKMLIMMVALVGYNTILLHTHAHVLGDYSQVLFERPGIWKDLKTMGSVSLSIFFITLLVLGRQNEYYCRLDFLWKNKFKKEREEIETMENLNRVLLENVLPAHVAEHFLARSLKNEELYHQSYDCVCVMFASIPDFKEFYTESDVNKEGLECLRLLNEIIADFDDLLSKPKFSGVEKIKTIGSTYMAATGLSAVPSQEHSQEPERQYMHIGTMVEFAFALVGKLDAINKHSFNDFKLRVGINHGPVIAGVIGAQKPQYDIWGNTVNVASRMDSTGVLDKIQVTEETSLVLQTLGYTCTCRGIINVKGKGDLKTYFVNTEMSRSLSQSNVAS
Sequence of Adenylate cyclase type 1 (Homo sapiens) (Q08828 whole entry, looked up): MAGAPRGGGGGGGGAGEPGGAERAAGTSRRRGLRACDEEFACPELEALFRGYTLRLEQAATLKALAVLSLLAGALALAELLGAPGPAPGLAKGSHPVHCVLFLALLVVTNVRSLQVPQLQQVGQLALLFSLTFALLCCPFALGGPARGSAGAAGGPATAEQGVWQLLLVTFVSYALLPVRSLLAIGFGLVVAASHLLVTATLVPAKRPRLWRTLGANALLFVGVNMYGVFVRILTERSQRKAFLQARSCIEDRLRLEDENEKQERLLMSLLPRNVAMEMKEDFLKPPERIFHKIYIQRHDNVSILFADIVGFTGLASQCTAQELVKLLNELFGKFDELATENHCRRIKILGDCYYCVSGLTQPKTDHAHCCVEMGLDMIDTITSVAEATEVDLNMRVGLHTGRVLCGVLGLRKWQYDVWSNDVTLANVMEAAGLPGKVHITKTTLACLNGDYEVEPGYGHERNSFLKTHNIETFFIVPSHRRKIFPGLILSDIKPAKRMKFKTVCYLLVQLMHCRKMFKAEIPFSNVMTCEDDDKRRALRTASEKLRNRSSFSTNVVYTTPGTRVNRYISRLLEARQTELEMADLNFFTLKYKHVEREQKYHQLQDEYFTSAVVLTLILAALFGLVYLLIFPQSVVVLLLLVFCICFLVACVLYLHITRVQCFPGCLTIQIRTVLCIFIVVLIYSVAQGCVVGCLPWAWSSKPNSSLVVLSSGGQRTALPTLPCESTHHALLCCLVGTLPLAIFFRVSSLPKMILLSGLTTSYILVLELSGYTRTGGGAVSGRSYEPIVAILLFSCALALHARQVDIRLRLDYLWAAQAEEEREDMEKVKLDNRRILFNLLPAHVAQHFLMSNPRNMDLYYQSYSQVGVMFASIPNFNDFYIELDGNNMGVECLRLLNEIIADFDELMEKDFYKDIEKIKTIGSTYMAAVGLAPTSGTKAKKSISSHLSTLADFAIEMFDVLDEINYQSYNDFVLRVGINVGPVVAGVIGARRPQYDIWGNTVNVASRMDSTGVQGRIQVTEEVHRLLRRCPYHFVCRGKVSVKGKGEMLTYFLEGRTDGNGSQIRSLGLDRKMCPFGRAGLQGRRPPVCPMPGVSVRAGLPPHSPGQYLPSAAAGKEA

Row | Structure (SMILES) | Activity [1] | Activity [2] | Activity [3] | Activity [4] | EC50 [4] [µM] | fold change (FC) [5]
1 | CCOC(=O)C1(Cc2ccc(Cl)cc2Cl)C(=O)Nc2ccccc21 (stereo not drawn) | inactive | inactive | inactive | Dose-dependent effect | 0.105 | 33
2 | C=C[C@@]1(C)CC(=O)[C@]2(O)[C@@]3(C)[C@@H](O)CCC(C)(C)[C@@H]3[C@H](O)[C@H](OC(C)=O)[C@@]2(C)O1 [COLFORSIN] | – | – | – | – | 0.0937 | 35
